Target: T1, human mAChR M4 (Homo sapiens, UniProt P08173)
T1 construct: expressed in transfected cells; host or cells: CHO-K1 (American Type Culture Collection), stably expressing hM4 and Gqi5
T1 sequence (P08173 1-479): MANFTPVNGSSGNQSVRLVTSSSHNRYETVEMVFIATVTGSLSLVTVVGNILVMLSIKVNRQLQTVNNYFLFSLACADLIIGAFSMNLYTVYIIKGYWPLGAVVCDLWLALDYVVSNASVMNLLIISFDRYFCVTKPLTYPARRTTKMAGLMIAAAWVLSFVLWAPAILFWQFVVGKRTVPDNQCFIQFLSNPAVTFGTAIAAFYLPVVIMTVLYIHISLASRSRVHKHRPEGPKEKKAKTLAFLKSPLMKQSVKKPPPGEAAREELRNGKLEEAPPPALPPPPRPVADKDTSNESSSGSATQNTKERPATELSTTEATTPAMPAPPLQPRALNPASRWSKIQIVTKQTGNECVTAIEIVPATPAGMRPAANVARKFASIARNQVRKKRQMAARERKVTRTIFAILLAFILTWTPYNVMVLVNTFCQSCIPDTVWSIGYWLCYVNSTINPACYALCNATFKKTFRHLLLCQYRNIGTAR
Experiment: mAChR M4 cell-based functional assay: calcium mobilization (Fluo-4, FDSS), potentiation of EC20 acetylcholine response in hM4-Gqi5 CHO-K1 cells
Conditions: human M4; for Emax at 30 µM: CHO-K1, % ACh maximum at 30 μM; for EC50: potentiation of EC20 acetylcholine response, calcium mobilization
Summary of the method: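 Readout is the fluorescence-ratio rise at 1 Hz on FDSS, with PAM activity taken as concentration-dependent enhancement of the EC20 acetylcholine response, fitted four-parameter for EC50/Emax. hM4-Gqi5 CHO-K1 cells carried Fluo-4 AM dye; test compounds (11 points, 1:3) preceded EC20 acetylcholine additions at 144 s and 230 s.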

Compound | Emax at 30 µM [%] | EC50 [nM]
COCc1cc(=O)n2nc(N3CCc4ncc(-c5cnccn5)cc4C3)c(C)c(C)c2n1 [Compound 1-261, 2-(methoxymethyl)-8,9-dimethyl-7-(3-(pyrazin-2-yl)-7,8-dihydro-1,6-naphthyridin-6(5H)-yl)-4H-pyrimido[1,2-b]pyridazin-4-one] | 94 | 20
CCn1cc(-c2cnc3c(c2)CN(c2nn4c(=O)cc(C)nc4cc2C)CC3)cn1 [Compound 1-219, 7-(3-(1-ethyl-1H-pyrazol-4-yl)-7,8-dihydro-1,6-naphthyridin-6(5H)-yl)-2,8-dimethyl-4H-pyrimido[1,2-b]pyridazin-4-one] | 80 | 341
COC1CN(C(=O)c2cc(=O)n3nc(N4CCc5ncc(C(F)(F)F)cc5C4)c(C)cc3n2)C1 [Compound 1-47, 2-(3-methoxyazetidine-1-carbonyl)-8-methyl-7-(3-(trifluoromethyl)-7,8-dihydro-1,6-naphthyridin-6(5H)-yl)-4H-pyrimido[1,2-b]pyridazin-4-one] | 103 | 144
Cc1cc(=O)n2nc(N3CCc4ncc(-c5ccc(F)c(F)c5)cc4C3)c(C)cc2n1 [Compound 1-213, 7-(3-(3,4-difluorophenyl)-7,8-dihydro-1,6-naphthyridin-6(5H)-yl)-2,8-dimethyl-4H-pyrimido[1,2-b]pyridazin-4-one] | 82 | 443
Cc1cc2nc(C)c(F)c(=O)n2nc1N1CCc2ncc(N3CCCn4nccc43)cc2C1 [Compound 2-9, 7-(3-(6,7-dihydropyrazolo[1,5-a]pyrimidin-4(5H)-yl)-7,8-dihydro-1,6-naphthyridin-6(5H)-yl)-3-fluoro-2,8-dimethyl-4H-pyrimido[1,2-b]pyridazin-4-one] | 84 | 17
Cc1c(N2CCc3ncc(-c4ccccc4Cl)cc3C2)nn2c(=O)ccnc2c1C [Compound 1-267, 7-(3-(2-chlorophenyl)-7,8-dihydro-1,6-naphthyridin-6(5H)-yl)-8,9-dimethyl-4H-pyrimido[1,2-b]pyridazin-4-one] | 89 | 183
Cc1c(N2CCc3ncc(-n4cccn4)cc3C2)nn2c(=O)ccnc2c1C [Compound 2-34, 7-(3-(1H-pyrazol-1-yl)-7,8-dihydro-1,6-naphthyridin-6(5H)-yl)-8,9-dimethyl-4H-pyrimido[1,2-b]pyridazin-4-one] | 77 | 318

The next lines start with the values.

Emax at 30 µM [%] | EC50 [nM] | Compound
89 | 552 | COc1cc(C)c(-c2cnc3c(c2)CN(c2nn4c(=O)cc(C)nc4cc2C)CC3)cn1 [Compound 1-285, 7-(3-(6-methoxy-4-methylpyridin-3-yl)-7,8-dihydro-1,6-naphthyridin-6(5H)-yl)-2,8-dimethyl-4H-pyrimido[1,2-b]pyridazin-4-one]
64 | 2710 | COc1cnccc1Nc1cnc2c(c1)CN(c1nn3c(=O)ccnc3cc1C)CC2 [Compound 2-112, 7-(3-((3-methoxypyridin-4-yl)amino)-7,8-dihydro-1,6-naphthyridin-6(5H)-yl)-8-methyl-4H-pyrimido[1,2-b]pyridazin-4-one]
78 | 98 | Cc1cc(-c2cnc3c(c2)CN(c2nn4c(=O)cc(C)nc4cc2C)CC3)ccn1 [Compound 1-239, 2,8-dimethyl-7-(3-(2-methylpyridin-4-yl)-7,8-dihydro-1,6-naphthyridin-6(5H)-yl)-4H-pyrimido[1,2-b] pyridazin-4-one]
76 | 339 | Cc1cc(=O)n2nc(N3CCc4ncc(-c5ccc(F)cc5F)cc4C3)c(C)cc2n1 [Compound 1-257, 7-(3-(2,4-difluorophenyl)-7,8-dihydro-1,6-naphthyridin-6(5H)-yl)-2,8-dimethyl-4H-pyrimido[1,2-b]pyridazin-4-one]
87 | 1080 | Cc1ncc(-c2cnc3c(c2)CN(c2nn4c(=O)ccnc4cc2C)CC3)o1 [Compound 1-397, 8-methyl-7-(3-(2-methyloxazol-5-yl)-7,8-dihydro-1,6-naphthyridin-6(5H)-yl)-4H-pyrimido[1,2-b]pyridazin-4-one]
